The values below come from patent US8575214B2, “MGlu 2/3 agonists” (Eli Lilly and Company, priority 2012, dated 2013).

For data set [1], the system named is male, Sprague-Dawley rats. Description: Reversal of phencyclidine (PCP)-induced hyperlocomotor activity in rats. Type of data set: in vivo, rat. As to conditions: Rattus norvegicus; p.o., overnight fasted rats, 4 hours prior to 5 mg/kg PCP. The text has this: Motor activity is monitored by placing individual male, Sprague-Dawley (Harlan, Indianapolis, Ind.) rats in transparent, plastic shoe-box cages of the dimensions 45×25×20 cm, with 1 cm depth of wood chips as bedding, and a metal grill on top of the cage. Motor monitors (Kinder Scientific) consist of a rectangular rack of 12 photobeams arranged in an 8×4 formation, (or a high density grouping of 22 in a 15×7 pattern) at a height of 5 cm, with a second rack (for measuring rearing behaviors) at a height of 15 cm. The shoe box cage is placed inside of these racks, with the racks on a 3 foot high tabletop in an isolated room. A compound of the invention (active) is dosed (intraperitoneal route) within a range of 0.3-10 mg/kg, 30 minutes prior to a 5 mg/kg challenge dose of phencyclidine (PCP). A compound of the invention (prodrug) is orally dosed within a range of 0.3-30 mg/kg, in overnight fasted rats, 4 hours prior to a 5 mg/kg challenge dose of PCP. On the test day, rats are placed in the test cage and allowed to acclimate for 30 minutes prior to PCP challenge; rats are monitored for an additional 60 minutes following PCP administration.
Data analysis and ED50 calculations are conducted using GraphPad Prism (San Diego, Calif. USA). Power analyses have determined that 8-10 rats per group are needed to have appropriate statistical power for detecting treatment differences (power=0.8). A one-way analysis of variance (ANOVA) with a post-hoc Dunnett's multiple comparison test is conducted on the total 60 minute locomotor activity. ED50 calculations are performed using non-linear regression curve fitting on percent reversal transformed data for each dose.

In data set [2] the target is T1, hPepT1 (Homo sapiens, UniProt P46059).
T1 construct: expressed in transfected cells; host or cells: HeLa cells (ATCC), transient transfection with PepT1 DNA using FuGene6
T1 sequence (P46059 1-708): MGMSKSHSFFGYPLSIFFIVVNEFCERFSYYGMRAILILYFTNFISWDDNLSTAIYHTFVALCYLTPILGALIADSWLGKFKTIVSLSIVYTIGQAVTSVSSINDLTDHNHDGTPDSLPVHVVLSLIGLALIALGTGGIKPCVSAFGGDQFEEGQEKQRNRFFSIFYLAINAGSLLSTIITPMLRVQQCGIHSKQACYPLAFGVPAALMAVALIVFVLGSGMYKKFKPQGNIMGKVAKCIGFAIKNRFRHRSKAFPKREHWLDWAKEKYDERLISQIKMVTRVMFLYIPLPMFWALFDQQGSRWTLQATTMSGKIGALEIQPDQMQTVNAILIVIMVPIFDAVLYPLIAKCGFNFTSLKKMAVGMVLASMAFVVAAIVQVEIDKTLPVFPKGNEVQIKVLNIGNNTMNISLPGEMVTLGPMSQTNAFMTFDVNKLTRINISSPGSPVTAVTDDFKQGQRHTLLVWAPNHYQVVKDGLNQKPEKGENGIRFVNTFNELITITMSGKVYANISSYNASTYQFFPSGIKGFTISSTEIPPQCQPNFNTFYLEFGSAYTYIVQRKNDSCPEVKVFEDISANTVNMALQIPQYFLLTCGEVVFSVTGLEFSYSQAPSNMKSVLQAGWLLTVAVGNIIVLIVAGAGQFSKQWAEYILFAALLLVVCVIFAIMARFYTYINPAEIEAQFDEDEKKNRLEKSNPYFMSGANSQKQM
The data set can be described thus: In vitro PepT1 GlySar inhibition screen and IC50 determination. Type of data set: cell-based. The following applies: PepT1 transiently transfected HeLa cells; for inhibition at 5000 µM: pH 6.0, 3 minutes, read-out: hPepT1 [3H]Gly-Sar uptake inhibition at 5 mM. The method, then:
HeLa cells, […], (American Type Culture Collection) are grown in Hyclone Medium (Invitrogen, Cat# SH30243) containing 10% fetal bovine serum (FBS), 0.1 mM non essential amino acids (NEAA), and 100 units/mL penicillin with 100 μg/mL streptomycin at 37° C. in a 5% CO2 humidified atmosphere. The cell line is used for up to 40 passages and then discarded. Frozen cells in 1 ml vials are thawed in water bath for 1-2 minutes and added to 5 mL of cell medium at 37° C. Each of the T-flasks is provided with 8.5 mL of the fresh medium and 1.5 mL of the cell stock. Cells are passaged twice during a week. This is achieved by rinsing the flasks with 10 mL of phosphate buffered saline-ethylene diaminetetra acetic acid (PBS-EDTA), adding 2 mL of trypsin for 2-5 minutes, to detach the cells, and adding 8 mL of fresh medium to inhibit further activity of trypsin. Each new flask receives a combination of 8.5 mL of fresh medium and 1.5 mL of cell stock, in order to obtain 1:6 cell dilution. Cells are incubated at 37° C., until ready for the uptake study.
Cells that are 70-80% confluent in the T-flasks are plated 1 day prior to the transfection procedure. The flask with the cell stock is treated with PBS-EDTA and trypsin to detach the cells, and transfection medium is used from this point. Transfection medium consists of Dulbecco's Modified Eagle Medium (DMEM)+NEAA. To each well, 0.5 mL of the cell mixture is added (1.3×10^5 is the desired cell concentration) and the cells are incubated at 37° C. overnight. Twenty four hours before the assay, cells are transfected with PEPT1. Transfection mixture is prepared by mixing 600 μL of serum free transfection medium, 18 μL of FuGene6 (Roche Diagnostics), and 11 μg of the PepT1 DNA. The transfection reagent-DNA complex is incubated for 20 minutes and 24 μL of the reagent-DNA complex is added to each well.
J. Pharm. Exper Ther. 310:437-445). […] Uptake media consists of 140 mM NaCl, 5.4 mM KCl, 1.8 mM CaCl2, 0.8 mM MgSO4, 5 mM Glucose, 25 mM tris(hydroxymethyl)aminomethane buffer (TRIS). The solution is then brought to pH 6.0 using 2-(N-morpholino)ethanesulfonic acid. The incubation volume is 500 μL and is performed at room temperature for 3 minutes. To stop the uptake at the conclusion of the incubation time, the uptake media is aspirated off of the cell monolayer and 500 μL of ice cold PBS added to the well. The cells are washed 3 times with 500 μL of room temperature PBS without Ca^+2 and Mg^+2. The cells are then lysed with 300 μL of 1% Triton X100 H2O solution. […] A no inhibitor control is established and the percent inhibition of each prodrug is calculated with respect to this control.
The incubation and sampling procedures are exactly the same as the PepT1 screen described above.

The conditions of data set [3]: 1 h, 10 µM, pH 7.4.
Method: Frozen human duodenum intestinal homogenates (1:2 tissue:buffer ratio using 100 mM Tris Phosphate buffer, pH 7.4) are obtained from Celsius In Vitro Technologies (Baltimore, Md.) that were both phenylmethylsulphonylfluoride (PMSF) and EDTA free.
All original tissue collections are performed at 4° C. and immediately frozen at −70° C. Human intestinal homogenates are thawed and diluted to a final protein concentration of 0.5 mg/mL in 100 mM PBS buffer, pH 7.4 immediately prior to the incubations.
Incubations are conducted in 96-well plates and all prodrugs are run in duplicate on each day. Stock prodrug solutions are prepared in water at a concentration of 1 mM. A 200 μL aliquot of 0.5 mg/mL intestinal homogenate and 196 μL of 100 mM PBS buffer are placed in a 96-well plate in a 37° C. water bath. Using a 96-well pipettor, 4 μL of the 1 mM prodrug solution is transferred into the homogenate. Immediately after addition of the prodrug (time zero) and after 1 hour incubation, 50 μL samples of the incubation mixture are removed using an automated disposable simultaneous 96 well pipettor and added directly to 200 μL of methanol quench solution containing 100 ng/mL of Internal Standard. The samples are then centrifuged at 3500 rpm for 5 minutes at 10° C. The supernatant (200 μL) is transferred to a final 96 well PCR plate and sealed for analysis by LC/MS/MS.
Concentrations of hydrolyzed active metabolite in the incubation mixtures are determined using LC/MS/MS detection on a Sciex API 4000 quadrapole mass spectrometer with Analyst version 1.4.2, TurbolonSpray, positive ionization, and Selected Reaction Monitoring (SRM). […]
Averages and standard deviations are calculated using Microsoft® Office Excel® 2007. Amount of hydrolysis is determined as a molar percentage of active metabolite formed relative to prodrug concentration added.

The ED50 is the dose at which the effect has come halfway, by size or by number of responders. In general, IC50 refers to the midpoint of a concentration-inhibition curve. For orientation: inhibition means how much of the control response was suppressed.

On to `CSCC[C@H](N)C(=O)N[C@@]1(C(=O)O)CC2(CC2)[C@H]2[C@H](C(=O)O)[C@H]21.Cl` [Example 6, (1S,2S,5R,6S)-2-[[(2S)-2-Amino-4-methylsulfanyl-butanoyl]amino]spiro[bi-cyclo[3.1.0]hexane-4,1′-cyclopropane]-2,6-dicarboxylic acid hydrochloride], for which the ED50 in data set [1] was determined as 4.31 mg/kg. Also, in data set [2] (0.0625 to 25 mM, read-out: hPepT1 [3H]Gly-Sar uptake inhibition IC50), the concentration for half-maximal inhibition (IC50) amounted to 250 µM. The inhibition at 5000 µM in data set [2] came to 87%. The “human intestinal hydrolysis relative to Internal Prodrug A” value in data set [3] is listed as 44%.

Take `Cl.NCC(=O)N[C@@]1(C(=O)O)CC2(CC2)[C@H]2[C@H](C(=O)O)[C@H]21` [Example 7, (1S,2S,5R,6S)-2-[(2-Aminoacetyl)amino]spiro[bi-cyclo[3.1.0]hexane-4,1′-cyclo-propane]-2,6-dicarboxylic acid hydrochloride]: the inhibition at 5000 µM in data set [2] amounted to 78%. Further, the “human intestinal hydrolysis relative to Internal Prodrug A” value in data set [3] is reported as 34%.
